What was measured:
Type in all cases: cell-based, mouse
RAW264.7 cells = test: Osteoclastogenesis in vitro and TRAP staining; settings: for number of TRAP-positive multi-nucleated cells: with 20 ng/ml RANKL, 5 days of culture; for growth area covered by multi-nucleated cells: dose dependent
Experimental: METHOD EXAMPLE. Inhibition of osteoclastogenesis of RAW264.7 cells by salubrinal. The primary aim of this study is to evaluate the effects of salubrinal on osteoclastogenesis. In response to 0.1-20 μM salubrinal for 24 h, cell mortality and live cell numbers of RAW264.7 pre-osteoclasts was examined. […] The number of live cells was increased by ˜50% by incubation with RANKL, and administration of 10-20 μM salubrinal reduced the numbers approximately by 10% (FIG. 3B).
METHOD EXAMPLE. Inhibitory effects of guanabenz on osteoclastogenesis of RAW264.7 cells. To further examine a potential involvement of p-eIF2α in regulation of osteoclastogenesis, we employed guanabenz that also acts as an inhibitor of de-phosphorylation of eIF2α was evaluated. […] Compared to the number of TRAP-positive multi-nucleated cells of 377 39 (RANKL only), guanabenz reduced the number of differentiated osteoclasts to 364±38 (1 μM), 288±51 (5 μM), 189±25 (10 μM), and 73±16 (20 μM).
METHOD EXAMPLE. Osteoclastogenesis in vitro and TRAP (Tartrate-resistant acid phosphatase) staining. RAW264.7 cells were plated at a density of 5×10^3/cm^2 into a 12-well or a 60 mm dish, and cultured with 20 ng/ml RANKL in the presence and absence of salubrinal or guanabenz. The culture medium was replaced every 2 days. After 5 days of culture, the cells were stained for TRAP staining using an acid phosphatase leukocyte kit (Sigma). The number of TRAP-positive cells containing three or more nuclei was determined

NFATc1 = test: Quantitative real-time PCR, NFATc1 mRNA in RAW264.7 cells
Experimental: (§1) METHOD EXAMPLE. Quantitative real-time PCR. Total RNA was extracted using an RNeasy Plus mini kit (Qiagen, Germantown, Md., USA). Reverse transcription was conducted with high capacity cDNA reverse transcription kits (Applied Biosystems, Carlsbad, Calif., USA), and quantitative real-time PCR was performed using ABI 7500 with Power SYBR green PCR master mix kits (Applied Biosystems). We evaluated mRNA levels of ATF4, Osteocalcin (OCN), NFATcl, c-Fos, tartrate-resistant acid phosphatase (TRAP), and osteoclast-associated receptor (OSCAR) with the PCR primers listed in Table 1. GAPDH was used for internal control. The relative mRNA abundance for the selected genes with respect to the level of GAPDH mRNA was expressed as a ratio of Streated/Scontrol, where Streated=mRNA level for the cells treated with chemical agents, and Scontrol=mRNA level for control cells.
(§2) METHOD EXAMPLE. Partial suppression of mRNA levels of NFATcl, c-Fos, TRAP, and OSCAR by salubrinal. […] On day 2, for instance, the RANKL-driven increase was 9.4±0.5 fold (NFATcl), 1.9±0.1 fold (c-fos), 165±4.2 fold (TRAP), and 467±22 fold (OSCAR). The reduction by 20 μM salubrinal was 46% (NFATcl), 32% (c-fos), 35% (TRAP), and 21% (OSCAR) (FIG. 5A).
(§3) METHOD EXAMPLE. Reduction of RANKL-induced NFATcl, c-Fos, TRAP, and OSCAR by guanabenz. […] The normalized level of “1” was defined as the level for the cells that were not treated with RANKL without administration of guanabenz.

p-eIF2α = test: Western immunoblotting, p-eIF2α in RAW264.7 cells; settings: with RANKL
Description: as §3
(§4) METHOD EXAMPLE. Western Immunoblotting. Cells were lysed in a radioimmunoprecipitation assay (RIPA) buffer containing protease inhibitors (Santa Cruz Biotechnology, Santa Cruz, Calif., USA) and phosphatase inhibitors (Calbiochem, Billerica, Mass., USA). Isolated proteins were fractionated using 10-15% SDS gels and electro-transferred to Immobilon-P membranes (Millipore, Billerica, Mass., USA). The membrane was incubated for 1 h with primary antibodies followed by 45 min incubation with goat anti-rabbit or anti-mouse IgG conjugated with horseradish peroxidase (Cell Signaling, Danvers, Mass., USA). We used antibodies against ATF4, NFATcl (Santa Cruz), p-eIF2α (Thermo Scientific, Waltham, Mass., USA), eIF2α, caspase 3, cleaved caspase 3, p38 and p-p38 mitogen activated protein kinase (MAPK), extracellular signal-regulated kinase (ERK) and p-ERK, nuclear factor kappa B (NFκB) p65 and p-NFκB p65 (Cell Signaling), and β-actin (Sigma). Protein levels were assayed using a SuperSignal west femto maximum sensitivity substrate (Thermo Scientific), and signal intensities were quantified with a luminescent image analyzer (LAS-3000, Fuji Film, Tokyo, Japan).
METHOD EXAMPLE. […]

Osteocalcin (OCN) = test: Quantitative real-time PCR, osteocalcin mRNA in MC3T3 E1-14 cells; settings: for increase of the level of osteocalcin mRNA: 5 μM salubrinal
Experimental: as §1
METHOD EXAMPLE. Knockdown of ATF4 and eIF2α by siRNA. Cells were treated with siRNA specific to ATF4 and eIF2α (Life Technologies). Selected target sequences for knockdown of ATF4 and eIF2α were: ATF4, 5′-GCU GCU UAC AUU ACU CUA A-3′; and eIF2α, 5′-CGG UCA AAA UUC GAG CAG A-3′. As a nonspecific control, a negative siRNA (Silencer Select #1, Life Technologies) was used. Cells were transiently transfected with siRNA for ATF4, eIF2α or control in Opti-MEM I medium with Lipofectamine RNAiMAX (Life Technologies). Six hours later, the medium was replaced by regular culture medium. The efficiency of silencing was assessed with immunoblotting or quantitative PCR 48 h after transfection.
METHOD EXAMPLE. ATF4-mediated elevation of osteocalcin mRNA in MC3T3 E1-14 cells. Salubrinal is an inhibitor of de-phosphorylation of eIF2α. […] Furthermore, the level of osteocalcin mRNA was increased 3.3±0.5 fold (24 h) and 3.3±0.3 fold (32 h) (FIG. 2B). […] Non-clonal MC3T3 E1 cells also presented elevation of p-eIF2α and ATF4, together with an increase in the mRNA levels of ATF4 and osteocalcin (Supplementary FIG. S2).

ATF4 = test: Western immunoblotting, ATF4 in MC3T3 E1-14 cells
Experimental: as §4
METHOD EXAMPLE. ATF4-mediated elevation of osteocalcin mRNA in MC3T3 E1-14 cells. Salubrinal is an inhibitor of de-phosphorylation of eIF2α. […]

[1] = system: tartrate-resistant acid phosphatase (TRAP); test: Quantitative real-time PCR, TRAP mRNA in RAW264.7 cells; settings: for expression of TRAP: absence of RANKL administration
Experimental: as §1, §2, §3

[2] = 20 μM guanabenz, 2 days after RANKL
[3] = 20 μM salubrinal, day 2 after RANKL

SMILES: N=C(N)N/N=C/c1c(Cl)cccc1Cl [guanabenz]
- number of TRAP-positive multi-nucleated cells (RAW264.7 cells; 1 μM): 364±38
- number of TRAP-positive multi-nucleated cells (RAW264.7 cells; 5 μM): 288±51
- number of TRAP-positive multi-nucleated cells (RAW264.7 cells; 10 μM): 189±25
- number of TRAP-positive multi-nucleated cells (RAW264.7 cells; 20 μM): 73±16
- growth area covered by multi-nucleated cells (RAW264.7 cells): significantly reduced
- osteoclastogenesis of RAW264.7 cells (RAW264.7 cells; guanabenz dose response, with RANKL): attenuated osteoclastogenesis of RAW264.7 cells in a dose dependent manner
- NFATc1 mRNA level (NFATc1; [2]): reduced
- temporal expression profile of p-eIF2α (p-eIF2α; 20 μM guanabenz): upregulatcd in 2 h
- mRNA level of osteocalcin (Osteocalcin (OCN); guanabenz dose response): elevated the mRNA level of osteocalcin in a dose dependent manner
- ATF4 (ATF4; guanabenz): increase in p-eIF2α and ATF4
- TRAP mRNA level [1, 2]: reduced
- TRAP mRNA level ([1]; 5 and 10 μM guanabenz, 2 days after RANKL): effective in reducing
- expression of TRAP [1]: did not significantly alter

SMILES: O=C(/C=C/c1ccccc1)NC(NC(=S)Nc1cccc2cccnc12)C(Cl)(Cl)Cl (stereo not shown) [salubrinal]
- number of TRAP-positive cells (RAW264.7 cells; 0.5 μM to 20 μM salubrinal, with RANKL): reduced the number of TRAP-positive cells in a dose dependent manner
- growth area covered by multi-nucleated cells (RAW264.7 cells): significantly reduced
- reduction of NFATc1 mRNA level (NFATc1; [3]): 46%
- NFATc1 mRNA level (NFATc1; 0.1-1 μM salubrinal, with RANKL, except on day 4): did not contribute to significant reduction
- level of p-eIF2α (p-eIF2α; 20 μM salubrinal, early period (2-4 h)): increased the level of p-eIF2α
- increase of the level of osteocalcin mRNA (Osteocalcin (OCN); 24 h): 3.3±0.5 fold
- increase of the level of osteocalcin mRNA (Osteocalcin (OCN); 32 h): 3.3±0.3 fold
- salubrinal-driven elevation of the osteocalcin mRNA level (Osteocalcin (OCN); ATF4 expression reduced by RNA interference): suppressed
- ATF4 expression (ATF4; 5 μM salubrinal): increase in ATF4 expression
- reduction of TRAP mRNA level [1, 3]: 35%
- TRAP mRNA level ([1]; 0.1-1 μM salubrinal, with RANKL, day 2 and day 4): did not contribute to significant reduction
- expression of TRAP [1]: did not significantly alter

From patent publication US20160279079A1, “COMPOSITIONS AND METHODS FOR TREATING BONE DISEASES” (INDIANA UNIVERSITY RESEARCH AND TECHNOLOGY CORPORATION, priority 2013, published 2016)
